Assay [1] has as its target T1, As-p18 (Ascaris suum, UniProt P55776).
T1 construct: mature protein without secretion signal peptide, N-terminal His-tag (pQE-30/As-p18), expressed in E. coli BL21 (DE3); monomer; delipidated by RP-HPLC for NMR, co-purified lipid retained for crystal
T1 sequence (P55776 21-163): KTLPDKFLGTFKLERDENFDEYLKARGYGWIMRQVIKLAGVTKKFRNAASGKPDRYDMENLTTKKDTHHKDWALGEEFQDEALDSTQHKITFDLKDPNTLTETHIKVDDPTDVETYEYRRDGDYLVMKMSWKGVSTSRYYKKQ
The experiment in a line: isothermal titration calorimetry; complex also solved by solution NMR. It counts as binding. On the technique in general: ITC needs no label: the signal is the heat of the interaction.

Assay [2] addresses T1, As-p18. The experiment in a line: X-ray crystallography at […] Å; GC-MS of co-purified lipid. It is filed as binding. As to conditions: co-purified from E. coli; pH 4.5 crystal; ligand density incomplete, vaccenate modelled.

The term Kd denotes a measure of binding affinity in units of concentration. Read a high Kd as lower affinity. For the molecule `CCCCCCCC/C=C\CCCCCCCC(=O)O` [oleic acid], on As-p18 [1], the Kd stood at 3.1 µM. That is a single-digit micromolar value.

`CCCCCC/C=C\CCCCCCCCCC(=O)O` [vaccenate, cis-11-octadecenoate]: the “X-ray crystallography at 2.3 Å; GC-MS of co-purified lipid” value at As-p18 [2] was “The two X-ray structures of As-p18 in complex with vaccenate”.

The record behind these values is paper PMC6646235, “Structure and ligand binding of As-p18, an extracellular fatty acid binding protein from the eggs of a parasitic nematode” (Bioscience Reports, 2019).
